Several values for one entry are separate records, joined by “and”; a condition that tells them apart may be missing. Identical values can stand only once.
What was measured:
[1] = test system: ORYSA (rice); test: Postemergence herbicidal safening in direct seeded rice, visual injury; settings: for Visual Injury (%) ‘Lemont’ ORYSA Obs / ‘M202’ ORYSA Visual Injury (%) Obs: after 3 weeks
Source text: A=observed efficacy of active ingredient A at the same concentration as used in the mixture.
B=observed efficacy of active ingredient B at the same concentration as used in the mixture.

[2] = test system: ECHCO; test: Postemergence herbicidal safening in direct seeded rice, visual injury on weed; type: in vivo; settings: alone, after 3 weeks
[3] = test system: CYPDI; test: as above; type: in vivo; settings: alone, after 3 weeks
[4] = test system: SEBEX; test: as above; type: in vivo; settings: alone, after 3 weeks
[5] = alone, 17.5 g ae/ha, after 3 weeks (Table 14)
[6] = alone, 35 g ae/ha, after 3 weeks (Table 14)
[7] = alone, 8.75 g ae/ha, after 3 weeks (Table 14)
[8] = No safener, 17.5 g ai/ha, after 3 weeks (Table 12)

O=C(C(Cl)Cl)N1CCOC12CCCCC2 [AD67]
ORYSA Visual Injury (%) ‘Lemont’ Obs ([1]; safener 140 g ai/ha alone): 0% | ORYSA Visual Injury (%) ‘M202’ Obs ([1]; safener 140 g ai/ha alone): 0% | ORYSA Visual Injury (%) ‘M202’ Obs ([1]; safener 280 g ai/ha alone): 15%

CCC(C)OC(=O)COc1ccc(Cl)c2cccnc12 (stereo not shown) [Cloquintocet 1-Methylpropyl Ester]
Visual Injury (%) ‘Lemont’ ORYSA Obs ([1]; alone, 280 g ae/ha): 0% | Visual Injury (%) ECHCO Obs ([2]; 280 g ae/ha): 0% | Visual Injury (%) CYPDI Obs ([3]; 280 g ae/ha): 0% | Visual Injury (%) SEBEX Obs ([4]; 280 g ae/ha): 0%

CCOC(=O)COc1ccc(Cl)c2cccnc12 [Cloquintocet Ethyl Ester]
Visual Injury (%) ‘Lemont’ ORYSA Obs ([1]; alone, 280 g ae/ha): 0% | Visual Injury (%) ECHCO Obs ([2]; 280 g ae/ha): 0% | Visual Injury (%) CYPDI Obs ([3]; 280 g ae/ha): 0% | Visual Injury (%) SEBEX Obs ([4]; 280 g ae/ha): 0%

COC(=O)COc1ccc(Cl)c2cccnc12 [Cloquintocet Methyl Ester]
Visual Injury (%) ‘Lemont’ ORYSA Obs ([1]; alone, 280 g ae/ha): 0% | Visual Injury (%) ECHCO Obs ([2]; 280 g ae/ha): 0% | Visual Injury (%) CYPDI Obs ([3]; 280 g ae/ha): 0% | Visual Injury (%) SEBEX Obs ([4]; 280 g ae/ha): 0%

CC(C)OC(=O)COc1ccc(Cl)c2cccnc12 [Cloquintocet i-Propyl Ester]
Visual Injury (%) ‘Lemont’ ORYSA Obs ([1]; alone, 280 g ae/ha): 0% | Visual Injury (%) ECHCO Obs ([2]; 280 g ae/ha): 0% | Visual Injury (%) CYPDI Obs ([3]; 280 g ae/ha): 0% | Visual Injury (%) SEBEX Obs ([4]; 280 g ae/ha): 0%

C=CCOC(=O)c1nc(-c2ccc(Cl)c(OC)c2F)cc(N)c1Cl [Compound 1 Allyl Ester]
ORYSA Visual Injury (%) ‘Cheniere’ Obs [1, 5]: 55% | ORYSA Visual Injury (%) ‘Clearfield’ Obs [1, 5]: 50% | ORYSA Visual Injury (%) ‘Cocodrie’ Obs [1, 5]: 30% | ORYSA Visual Injury (%) ‘Lemont’ Obs [1, 5]: 25% | ORYSA Visual Injury (%) ‘M202’ Obs [1, 5]: 55% | ORYSA Visual Injury (%) ‘Wells’ Obs [1, 5]: 10%

CCCCOCCOC(=O)c1nc(-c2ccc(Cl)c(OC)c2F)cc(N)c1Cl [Compound 1 Et butoxy Ester]
ORYSA Visual Injury (%) ‘Cheniere’ Obs [1, 6]: 50% | ORYSA Visual Injury (%) ‘Clearfield’ Obs [1, 6]: 40% | ORYSA Visual Injury (%) ‘Cocodrie’ Obs [1, 6]: 50% | ORYSA Visual Injury (%) ‘Lemont’ Obs [1, 6]: 50% | ORYSA Visual Injury (%) ‘M202’ Obs [1, 6]: 30% | ORYSA Visual Injury (%) ‘Wells’ Obs [1, 6]: 15%

COc1c(Cl)ccc(-c2cc(N)c(Cl)c(C(=O)[O-])n2)c1F.[K+] [Compound 1 K^+ Salt]
ORYSA Visual Injury (%) ‘Cheniere’ Obs [1, 7]: 50% | ORYSA Visual Injury (%) ‘Clearfield’ Obs [1, 7]: 45% | ORYSA Visual Injury (%) ‘Cocodrie’ Obs [1, 7]: 30% | ORYSA Visual Injury (%) ‘Lemont’ Obs [1, 7]: 40% | ORYSA Visual Injury (%) ‘M202’ Obs [1, 7]: 50% | ORYSA Visual Injury (%) ‘Wells’ Obs [1, 7]: 0%

COC(=O)c1nc(-c2ccc(Cl)c(OC)c2F)cc(N)c1Cl [Compound 1 Methyl Ester]
‘M202’ ORYSA Visual Injury (%) Obs ([1]; No safener, 17.5 g ai/ha): 15.0% | ORYSA Visual Injury (%) ‘Cheniere’ Obs [1, 8]: 20% | ORYSA Visual Injury (%) ‘Cocodrie’ Obs [1, 8]: 13% | ORYSA Visual Injury (%) ‘M202’ Obs [1, 8]: 45% | ‘M202’ ORYSA Visual Injury (%) Obs ([1]; No safener, 35 g ai/ha): 35.0% | Visual Injury (%) ‘Lemont’ ORYSA Obs ([1]; alone, 17.5 g ae/ha): 15% | ORYSA Visual Injury (%) ‘Cheniere’ Obs [1, 5]: 85% | ORYSA Visual Injury (%) ‘Clearfield’ Obs [1, 5]: 45% | ORYSA Visual Injury (%) ‘Cocodrie’ Obs [1, 5]: 55% | ORYSA Visual Injury (%) ‘Lemont’ Obs [1, 5]: 40% | ORYSA Visual Injury (%) ‘M202’ Obs [1, 5]: 25% | ORYSA Visual Injury (%) ‘Wells’ Obs [1, 5]: 10% | Visual Injury (%) ‘Lemont’ ORYSA Obs ([1]; alone, 35 g ae/ha): 35% | Visual Injury (%) ‘Lemont’ ORYSA Obs ([1]; alone, 70 g ae/ha): 45% | Visual Injury (%) ‘Lemont’ ORYSA Obs ([1]; alone, 70 g ai/ha): 50% and 25% | Visual Injury (%) ECHCO Obs ([2]; 17.5 g ae/ha): 99% | Visual Injury (%) ECHCO Obs ([2]; 35 g ae/ha): 99% | Visual Injury (%) ECHCO Obs ([2]; 35 g ai/ha): 95% and 100% | Visual Injury (%) ECHCO Obs ([2]; 70 g ae/ha): 100% | Visual Injury (%) ECHCO Obs ([2]; 70 g ai/ha): 99% and 100% | Visual Injury (%) CYPDI Obs ([3]; 17.5 g ae/ha): 100% | Visual Injury (%) CYPDI Obs ([3]; 35 g ae/ha): 100% | Visual Injury (%) CYPDI Obs ([3]; 35 g ai/ha): 100% | Visual Injury (%) CYPDI Obs ([3]; 70 g ae/ha): 100% | Visual Injury (%) CYPDI Obs ([3]; 70 g ai/ha): 100% | Visual Injury (%) SEBEX Obs ([4]; 17.5 g ae/ha): 100% | Visual Injury (%) SEBEX Obs ([4]; 35 g ae/ha): 100% | Visual Injury (%) SEBEX Obs ([4]; 35 g ai/ha): 100% | Visual Injury (%) SEBEX Obs ([4]; 70 g ae/ha): 100% | Visual Injury (%) SEBEX Obs ([4]; 70 g ai/ha): 100%

— patent publication US8916498B2, “Safening 6-(trisubstituted phenyl)-4-amino-2-pyridinecarboxylate herbicide injury on direct seeded and transplanted paddy rice” (priority 2008, dated 2014)
